The values below come from ChEMBL document CHEMBL1221359, “The discovery of a series of N-substituted 3-(4-piperidinyl)-1,3-benzoxazolinones and oxindoles as highly brain penetrant, selective muscarinic M1 agonists” (Bioorg Med Chem Lett, 2010).

The source made the active and inactive calls. The rule behind the calls is not given here.

The target in data set [1] is T1, Muscarinic acetylcholine receptor M1 (Homo sapiens, UniProt P11229).
T1 sequence (P11229 whole entry): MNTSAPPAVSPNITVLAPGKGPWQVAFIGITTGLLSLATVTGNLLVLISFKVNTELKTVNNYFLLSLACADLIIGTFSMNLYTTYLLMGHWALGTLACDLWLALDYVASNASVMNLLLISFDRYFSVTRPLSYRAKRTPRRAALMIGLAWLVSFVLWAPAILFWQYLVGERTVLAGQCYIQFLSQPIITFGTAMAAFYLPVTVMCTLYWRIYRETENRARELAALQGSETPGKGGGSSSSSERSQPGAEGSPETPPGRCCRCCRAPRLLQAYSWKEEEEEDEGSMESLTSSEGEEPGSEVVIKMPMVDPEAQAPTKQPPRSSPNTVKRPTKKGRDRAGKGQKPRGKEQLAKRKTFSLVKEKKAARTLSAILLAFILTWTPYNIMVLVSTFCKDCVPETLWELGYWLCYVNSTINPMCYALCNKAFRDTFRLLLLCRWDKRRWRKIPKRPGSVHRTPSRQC
Kind of data set: Agonist activity at human muscarinic M1 receptor expressed in CHO cells assessed as effect on calcium mobilization by FLIPR assay. It is filed as functional, cell-based.

Data set [2] concerns the target T2, Muscarinic acetylcholine receptor M4 (Homo sapiens, UniProt P08173).
T2 sequence (P08173 whole entry): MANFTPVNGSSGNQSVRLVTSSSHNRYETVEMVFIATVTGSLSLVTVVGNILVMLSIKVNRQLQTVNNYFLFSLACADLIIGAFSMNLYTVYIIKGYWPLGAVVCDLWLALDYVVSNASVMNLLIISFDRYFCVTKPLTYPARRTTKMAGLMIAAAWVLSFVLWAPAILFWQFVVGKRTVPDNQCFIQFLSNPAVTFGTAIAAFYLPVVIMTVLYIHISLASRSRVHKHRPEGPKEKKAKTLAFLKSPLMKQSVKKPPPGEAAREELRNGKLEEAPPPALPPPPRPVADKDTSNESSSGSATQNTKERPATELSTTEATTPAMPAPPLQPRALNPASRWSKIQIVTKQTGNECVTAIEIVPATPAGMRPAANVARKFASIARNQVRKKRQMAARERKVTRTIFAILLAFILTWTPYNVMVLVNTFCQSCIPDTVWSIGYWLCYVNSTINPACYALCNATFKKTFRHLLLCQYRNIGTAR
Kind of data set: Agonist activity at human muscarinic M4 receptor expressed in CHO cells co-expressing Gqi5 chimeric G-protein assessed as effect on calcium mobilization by FLIPR assay. In kind it is functional, cell-based. For orientation: A change in cytosolic calcium serves as a functional read-out for many receptors and channels.

Data set [3] concerns the target Muscarinic acetylcholine receptor M3 (Homo sapiens, UniProt P20309). As to the kind of experiment: Agonist activity at human muscarinic M3 receptor expressed in CHO cells assessed as effect on calcium mobilization by FLIPR assay. In kind it is functional, cell-based.
Data set [4] has as its target T3, Muscarinic acetylcholine receptor M2 (Homo sapiens, UniProt P08172).
T3 sequence (P08172 whole entry): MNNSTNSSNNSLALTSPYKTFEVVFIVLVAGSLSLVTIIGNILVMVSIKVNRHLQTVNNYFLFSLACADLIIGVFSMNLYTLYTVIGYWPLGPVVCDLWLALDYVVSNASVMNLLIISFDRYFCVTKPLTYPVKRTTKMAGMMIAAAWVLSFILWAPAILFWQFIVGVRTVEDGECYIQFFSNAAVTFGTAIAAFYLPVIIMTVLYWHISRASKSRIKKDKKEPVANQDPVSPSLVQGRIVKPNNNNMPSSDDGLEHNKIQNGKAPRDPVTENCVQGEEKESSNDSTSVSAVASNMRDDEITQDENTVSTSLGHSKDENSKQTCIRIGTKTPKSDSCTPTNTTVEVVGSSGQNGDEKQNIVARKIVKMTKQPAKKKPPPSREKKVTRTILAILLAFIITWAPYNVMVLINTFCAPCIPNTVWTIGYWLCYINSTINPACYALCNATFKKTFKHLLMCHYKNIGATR
Kind of data set: Agonist activity at human muscarinic M2 receptor expressed in CHO cells co-expressing Gqi5 chimeric G-protein assessed as effect on calcium mobilization by FLIPR assay. It is filed as functional, cell-based.

The target of data set [5] is T4, Muscarinic acetylcholine receptor M5 (Homo sapiens, UniProt P08912).
T4 sequence (P08912 whole entry): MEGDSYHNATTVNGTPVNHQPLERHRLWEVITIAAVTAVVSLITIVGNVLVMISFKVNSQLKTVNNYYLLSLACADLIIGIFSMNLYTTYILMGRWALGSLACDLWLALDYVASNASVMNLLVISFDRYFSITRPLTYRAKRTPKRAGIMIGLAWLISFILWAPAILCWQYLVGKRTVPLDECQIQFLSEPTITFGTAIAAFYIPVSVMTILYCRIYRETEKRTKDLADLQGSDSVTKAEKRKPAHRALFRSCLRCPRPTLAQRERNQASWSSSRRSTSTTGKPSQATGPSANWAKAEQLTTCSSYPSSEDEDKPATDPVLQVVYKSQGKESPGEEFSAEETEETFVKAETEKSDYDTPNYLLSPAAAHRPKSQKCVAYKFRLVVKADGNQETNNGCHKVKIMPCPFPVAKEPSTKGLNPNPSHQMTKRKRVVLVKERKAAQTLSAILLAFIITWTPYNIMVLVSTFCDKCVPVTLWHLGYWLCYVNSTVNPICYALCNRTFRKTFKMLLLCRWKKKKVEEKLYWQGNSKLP
Kind of data set: Agonist activity at human muscarinic M5 receptor expressed in CHO cells assessed as effect on calcium mobilization by FLIPR assay. In kind it is functional, cell-based.

The nature of data set [6]: Ratio of drug level in brain to blood in rat at 1 mg/kg, iv. The arrangement: dose 1 mg/kg, route intravenous. In kind it is ADME, organism-based.
The test system of a further data set is Brain. Kind of data set: Drug level in rat brain assessed as tissue binding. In kind it is ADME, tissue-based.
A short description of data set [7]: Clearance in rat blood at 3 mg/kg, po. In kind it is ADME, organism-based. The arrangement: dose 3 mg/kg, route oral.
Data set [8] is described as follows: Drug level in rat whole blood assessed as tissue binding. It is filed as ADME, tissue-based.
Data set [9] is described as follows: Ratio of drug level in brain to blood in rat at 3 mg/kg, po. It is filed as ADME, organism-based. The arrangement: dose 3 mg/kg, route oral.
For data set [10], the system named is Rattus norvegicus. As to the kind of experiment: Cognitive enhancing effect in rat assessed as reversal of temporal-induced memory deficit at 1 mg/kg by novel object recognition assay. The arrangement: dose 1 mg/kg. In kind it is functional, organism-based.
Data set [11] can be described thus: Inhibition of sigma receptor at 10 uM.
Data set [12] is filed under the species Rattus norvegicus. As to the kind of experiment: Cognitive enhancing effect in rat assessed as reversal of temporal-induced memory deficit by novel object recognition assay. In kind it is functional, organism-based.

Sequence of Muscarinic acetylcholine receptor M3 (P20309 whole entry): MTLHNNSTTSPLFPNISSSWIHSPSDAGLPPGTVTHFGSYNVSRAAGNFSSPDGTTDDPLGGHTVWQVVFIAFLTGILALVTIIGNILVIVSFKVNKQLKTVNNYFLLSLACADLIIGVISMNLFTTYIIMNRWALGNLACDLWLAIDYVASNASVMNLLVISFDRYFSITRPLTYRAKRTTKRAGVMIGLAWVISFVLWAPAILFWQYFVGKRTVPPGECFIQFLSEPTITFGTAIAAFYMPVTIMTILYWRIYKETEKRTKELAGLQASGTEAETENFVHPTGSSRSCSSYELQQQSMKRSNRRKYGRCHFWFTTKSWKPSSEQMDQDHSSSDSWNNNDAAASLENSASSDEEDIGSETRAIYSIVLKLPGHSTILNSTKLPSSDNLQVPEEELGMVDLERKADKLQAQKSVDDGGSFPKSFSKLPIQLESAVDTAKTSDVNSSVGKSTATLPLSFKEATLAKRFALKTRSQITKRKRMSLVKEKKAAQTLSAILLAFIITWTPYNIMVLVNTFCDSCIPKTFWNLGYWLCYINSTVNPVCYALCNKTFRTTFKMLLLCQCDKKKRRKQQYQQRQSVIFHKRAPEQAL

In general, EC50 refers to the midpoint of the concentration-response curve. On to `Cc1cc2c(cc1F)[nH]c(=O)n2C1CCN(C2CCOCC2)CC1`, for which the half-maximal effective concentration (EC50) in data set [1] is 0.00501 µM; in [2], 0.251 µM; in [3], 2.51 µM.

Regarding `CCO[C@H]1CC[C@](C)(N2CCC(n3c(=O)oc4ccc(OC)cc43)CC2)CC1`, the EC50 in data set [1] is 0.00251 µM; in data set [2], 0.158 µM; in [4], 0.398 µM; in [3] it was 1.58 µM; in data set [5], 0.158 µM.

For `CCO[C@H]1CC[C@](C)(N2CCC(n3c(=O)oc4ccc(S(=O)(=O)CC)cc43)CC2)CC1`, the EC50 in [1] was 0.2 µM; in [2] it was 1.58 µM; in data set [4], over 15.8 µM; in data set [3] it was 0.398 µM; in [5] it was 5.01 µM.

As to `CCCO[C@H]1CC[C@](C)(N2CCC(n3c(=O)[nH]c4cc(F)c(C)cc43)CC2)CC1`, the EC50 in data set [1] was 0.000398 µM; in data set [2], 0.0126 µM; in data set [4] it was 0.02 µM; in data set [3], 0.0794 µM; in data set [5], 0.0126 µM.

The Kp is tissue or fluid exposure divided by exposure in the circulation. By CL/F is commonly meant the apparent clearance, not corrected for the fraction that reaches the circulation. As for `CCCO[C@H]1CC[C@](C)(N2CCC(N3C(=O)Cc4ccc(C)cc43)CC2)CC1`, the EC50 in data set [1] was 0.000501 µM; in data set [2] it was 0.0398 µM; in data set [4], 0.0631 µM; in [3], 0.0631 µM; in data set [5], 0.02 µM. In addition, the partition ratio (Kp) in data set [6] was determined as 5.7. Besides, the Drug uptake came to 94% with Brain and 80% in data set [8]. Also, the CL/F in data set [7] was found to be 5.1 L/h/kg.

On to `CCCO[C@H]1CC[C@](C)(N2CCC(n3c(=O)oc4ccc(S(C)(=O)=O)cc43)CC2)CC1`, for which the 50% effective concentration (EC50) is 0.00251 µM in data set [1]; 0.501 µM in data set [2]; 0.794 µM in data set [4]; 3.16 µM in [3]; 0.316 µM in data set [5]. For the same compound, the Kp in data set [9] worked out at 0.8. Further, the Drug uptake in the data set with Brain is reported as 74%; in data set [8], 60%. Besides, the CL/F in data set [7] is 0.66 L/h/kg.

Consider `COCCO[C@H]1CC[C@](C)(N2CCC(n3c(=O)oc4ccc(C)cc43)CC2)CC1`, for which the concentration giving a half-maximal response (EC50) in data set [1] was 0.00251 µM; in [2], 0.2 µM; in [4] it was 0.631 µM; in data set [3] it was 0.631 µM; in data set [5], 0.158 µM.

On to `CO[C@H]1CC[C@](C)(N2CCC(N3C(=O)Cc4ccc(C)cc43)CC2)CC1`, for which the EC50 in [1] was 0.00316 µM; in [2], 0.158 µM; in [4] it was 0.631 µM; in data set [3] it was 0.316 µM; in data set [5], 0.126 µM.

For the compound `CCO[C@H]1CC[C@](C)(N2CCC(n3c(=O)oc4ccccc43)CC2)CC1`, the EC50 in data set [1] was 0.0251 µM; in [2], 0.126 µM; in data set [4], over 15.8 µM; in data set [3], over 15.8 µM; in data set [5] it was 1 µM.

What is called inhibition is the change of the read-out against control, counted positive when it falls. As to `COCCO[C@H]1CC[C@](C)(N2CCC(n3c(=O)oc4ccc(C#N)cc43)CC2)CC1`, the EC50 was 0.01 µM in [1]; 0.794 µM in data set [2]; 2.51 µM in data set [4]; 3.98 µM in data set [3]; 1 µM in data set [5]. The Kp in data set [9] turned out to be 1.7. For the same compound, in the data set on Rattus norvegicus [10], the result was Active. The compound further registered an inhibition in [11] of 75%. Besides, in the data set listed under Rattus norvegicus [12], the Activity result was “Dose-dependent effect”. In addition, the Drug uptake with Brain was determined as 61%; in data set [8], 42%. The apparent clearance CL/F in [7] amounted to 1.38 L/h/kg.

With `CCO[C@H]1CC[C@](C)(N2CCC(n3c(=O)oc4ccc(S(C)(=O)=O)cc43)CC2)CC1`, the EC50 in [1] is 0.0126 µM; in data set [2], 1.58 µM; in data set [4], 2.51 µM; in data set [3], 1.26 µM; in data set [5] it was 1.26 µM.

For the compound `CCO[C@H]1CC[C@](C)(N2CCC(N3C(=O)Cc4ccc(C)cc43)CC2)CC1`, the 50% effective concentration (EC50) in [1] is 0.000398 µM; in data set [2], 0.0316 µM; in data set [4] it was 0.1 µM; in [3] it was 0.126 µM; in data set [5], 0.02 µM.

Regarding `CO[C@H]1CC[C@](C)(N2CCC(n3c(=O)oc4ccc(C)cc43)CC2)CC1`, the EC50 in data set [1] is 0.00794 µM; in data set [2] it was 0.501 µM; in data set [4], 1.26 µM; in [3], 2 µM; in data set [5], 0.398 µM.

As to `CCO[C@H]1CC[C@](C)(N2CCC(n3c(=O)oc4ccc(C#N)cc43)CC2)CC1`, the concentration giving a half-maximal response (EC50) in data set [1] was 0.00316 µM; in data set [2], 0.794 µM; in [4], 2.51 µM; in data set [3], 2.51 µM; in data set [5], 0.398 µM.

`CCO[C@H]1CC[C@](C)(N2CCC(n3c(=O)oc4cc(F)c(C)cc43)CC2)CC1`: the concentration giving a half-maximal response (EC50) in [1] is 0.001 µM; in [2], 0.1 µM; in [4], 0.501 µM; in data set [3], 0.794 µM; in data set [5], 0.0501 µM.

As for `CCO[C@H]1CC[C@](C)(N2CCC(n3c(=O)oc4c(F)cc(C)cc43)CC2)CC1`, the half-maximal effective concentration (EC50) is 0.00126 µM in [1]; 0.2 µM in [2]; 0.794 µM in [4]; 2 µM in [3]; 0.158 µM in data set [5].
